From ChEMBL document CHEMBL1135256, “Benzimidazole-4,7-diones as inhibitors of protozoal (Toxoplasma gondii) purine nucleoside phosphorylase” (Bioorg Med Chem Lett, 2002)

Key:
[1] = tested on: Purine nucleoside phosphorylase (Toxoplasma gondii); assay: Inhibition of Toxoplasma gondii purine nucleoside phosphorylase from virulent strain RH at 4 mM
[2] = tested on: Purine nucleoside phosphorylase (Toxoplasma gondii); assay: Inhibition of Toxoplasma gondii purine nucleoside phosphorylase from virulent strain RH at 1 mM
[3] = tested on: Purine nucleoside phosphorylase (Toxoplasma gondii); assay: Inhibition of Toxoplasma gondii purine nucleoside phosphorylase from cystic strain ME 49 at 1 mM
[4] = tested on: Purine nucleoside phosphorylase (Toxoplasma gondii); assay: Inhibition of Toxoplasma gondii purine nucleoside phosphorylase from cystic strain ME 49 at 4 mM
[5] = target: T1, Purine nucleoside phosphorylase (Homo sapiens) (UniProt P00491); assay: Compound was evaluated for its ability to inhibit in vitro Toxoplasma gondii purine nucleoside phosphorylase from cystic strain ME 49 at a concentration of 4 mM
T1 sequence (whole entry): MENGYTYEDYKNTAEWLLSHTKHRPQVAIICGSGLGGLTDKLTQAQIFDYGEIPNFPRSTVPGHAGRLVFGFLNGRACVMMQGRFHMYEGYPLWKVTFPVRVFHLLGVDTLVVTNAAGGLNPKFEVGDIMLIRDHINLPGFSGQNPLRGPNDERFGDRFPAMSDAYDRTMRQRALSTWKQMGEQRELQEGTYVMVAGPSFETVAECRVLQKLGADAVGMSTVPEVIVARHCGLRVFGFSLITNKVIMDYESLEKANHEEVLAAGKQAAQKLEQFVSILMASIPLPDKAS

| Structure (SMILES) | inhibition [1] | inhibition [2] | inhibition [3] | inhibition [4] | inhibition [5] |
| --- | --- | --- | --- | --- | --- |
| O=C1C=CC(=O)c2c1ncn2Cc1cccc(F)c1 | 100% | 65% | 60% | 100% |  |
| O=c1[nH]cnc2c1cnn2[C@@H]1O[C@H](CO)[C@@H](O)[C@H]1O | 28% | 8% | 11% | 22% |  |
| Cn1cnc2c1C(=O)C=CC2=O | 85% | 55% | 31% | 82% |  |
| O=C1C=CC(=O)c2c1ncn2Cc1ccccc1F | 87% | 70% | 62% | 89% |  |
| O=C1C=CC(=O)c2c1ncn2Cc1ccc(F)cc1 | 88% | 80% | 56% |  | 100% |
| Cc1nc2c(n1Cc1ccccc1)C(=O)C=CC2=O | 82% | 54% | 66% | 92% |  |
| CCCCn1cnc2c1C(=O)C=CC2=O | 68% | 45% | 53% | 65% |  |
| O=C1C=CC(=O)c2c1nc(Cc1ccccc1)n2Cc1ccccc1 | 80% | 65% | 61% | 78% |  |
| O=C1C=CC(=O)c2[nH]cnc21 | 68% | 47% | 52% | 71% |  |
